Measured values published in US20250346587A1, “NITROGEN-CONTAINING FIVE-MEMBERED HETEROCYCLIC DERIVATIVES AS CHECKPOINT KINASE 1 INHIBITOR AND USES THEREOF” (SPEROGENIX THERAPEUTICS LIMITED, priority 2022, published 2025).
≈ marks a conversion by molar mass, not a printed value. Read-outs that look alike come from different tables or passages of the source.

Columns and labels:
[1] = Microsomal stability assay, mouse liver microsome; assay type: in vitro ADME; conditions: liver microsomes, pH 7.4, 0.2 mg/mL, 1 μM compound, 37° C., read-out: Clint MLM
Procedure: (§1) Incubation mixture contained 0.2 mg/mL microsomes, 1 mmol NADPH, and test compound at 1 μM in 100 mmol potassium phosphate buffer at pH 7.4. The mixtures were incubated at 37° C. for 5, 15, and 30 minutes. Aliquots of the mixtures were taken at 0, 5, 15 and 30 minutes and quenched with chilled Acetonitrile:Methanol (50:50) containing internal standard. Following completion of incubation, samples were centrifuged at 4,000 rpm at 4° C. The supernatant was analyzed by LC-MS/MS and half-life, as well as intrinsic clearance (Clint), were calculated.

[2] = Microsomal stability assay, human liver microsome; assay type: in vitro ADME; conditions: liver microsomes, pH 7.4, 0.2 mg/mL, 1 μM compound, 37° C., read-out: Clint HLM
Procedure: as §1

[3] = Microsomal stability assay, rat liver microsome; assay type: in vitro ADME; conditions: liver microsomes, pH 7.4, 0.2 mg/mL, 1 μM compound, 37° C., read-out: Clint RLM
Procedure: as §1

[4] = Caco-2 cell permeability assay; assay type: in vitro ADME; conditions: human; for Papp A→B at 120 min: Caco-2, A to B; for Papp A→B at 120 min / Papp B→A at 120 min: pH 7.4; for Papp B→A at 120 min: Caco-2, B to A
Procedure: After thawed, Caco-2 cells were cultured in the medium containing 10% FBS, 1% Sodium pyruvate, 1% NEAA and 1% Glutamax MEM, then were placed in the incubator containing 5% CO2 at 37° C., and the culture medium then was replaced every 2-3 days. When the confluence reached 80%, the subculture was carried out. Add 5 mL of 1 M HEPES to 500 mL of HBSS for preparing transport buffer (pH 7.4), and the final concentration of HEPES was 10 mM. Before the transport study (day 21-28), take out the culture medium from the cell culture plate, wash it twice with preheated HBSS buffer (10 mM HEPES, pH 7.4), and add 100 μL HBSS buffer to each well. After incubation at 37° C. for 30 minutes, Teer value was measured by cell resistance meter (Millicell-ERS2) to confirm the integrity of monolayer cells. Discard the HBSS buffer, transfer the upper plate containing the cell monolayer membrane to the corresponding receiving plate, add the test compound solution or buffer to the top (side A) and the bottom (side B) respectively, put the cell plate into the corresponding 96 well receiving plate, and add the prepared positive control compound, test compound or HBSS buffer (with 0.5% BSA) on side A or side B of the filter membrane of Transwell cell plate according to the following groups, incubate cell plates at 37° C. When incubated for 5 minutes, 8 μL sample solutions were taken from the side A and the side B respectively and add 72 μL transport buffer (diluted 10 times) as TO of the initial solution. After 120 minutes of incubation, collect the samples at both ends of the filter membrane of Transwell cell plate; take 80 μL sample solution from the receiving side as the sample on the receiving side after transport, meanwhile take 8 μL sample solution from the administration side and then mix with 72 μL transport buffer, the well-mixed solution was used as the sample on the administration side after transport. After collecting bilateral samples, tap gently, discard the remaining solution in the cell plate, wash the cell plate with transport buffer; and to each well, add 100 μL acetonitrile solution containing internal standard working solution to lyse cells; After mixing well by blowing up and down, take 80 μL per well cell lysate as the sample after cell lysis. After collecting all samples in the transport system (TO sample from receiving side and administration side), 160 μL IS/ACN solution was added to each well, 80 μL IS/ACN solution was added to the collected lysate sample, and then seal it. Shake for 10 minutes and store the sample plate at −20° C. before LC-MS/MS analysis.
The following equation are used to calculate the apparent permeability coefficient (Papp, cm/s), the efflux ratio (ER), the solution recovery (% Recovery) and the total recovery (% Total Recovery).
Where, • Vreceiver is the volume of solution at the receiving end (0.25 mL for A to B and 0.1 mL for B to A); • Vdonor is the volume of the solution at the administration end (0.1 mL for A to B and 0.25 mL for B to A); • Vlysate is the volume of cell lysate (0.1 mL); • Area is the relative surface area of the cell monolayer (0.0804 cm^2); • Time is the incubation time (7200 s); • [drug]receiver is the drug concentration (nM) at the receiving end or the control compound; • [drug]donor is the concentration of drug or control compound at the administration end (nM); • [drug]lysate is the concentration of drug or control compound in cell lysate (nM); • [drug]initial is the initial concentration of the test or control compound (nM).

CHK-1 kinase = CHK-1 kinase (Homo sapiens (Human), UniProt O14757); experiment: CHK-1 % inhibition kinase assay (TR-FRET); assay type: biochemical; conditions: ATP 15 μM; for inhibition at 0.03 µM / inhibition at 0.3 µM: CHK1 enzyme; for inhibition at 0.03 µM: compound 30 nM; for inhibition at 0.3 µM: compound 300 nM; for IC50: TR-FRET, read-out: CHK1 IC50
Procedure: Inhibition of CHK-1 kinase or percent inhibition at defined concentrations was determined by TR-FRET assay. Kinase reactions were performed in a 20 μL volume in low-volume 384-well plates (Cat #Corning 4511). The concentration of substrate Fluorescein-CREBtide was maintained at 0.2 μM in the assay, and the kinase reaction buffer consisted of 50 mM HEPES pH 7.5, 0.01% BRIJ-35, 10 mM MgCl2, 1 mM EGTA. Serially diluted compounds (3-fold) in DMSO (0.5% in final reaction) were incubated with cocktail of CHK-1 kinase (6 nM; Cat #PR3959B, ThermoFisher), Fluorescein-CREBtide (0.2 μM; Cat #PV3508, ThermoFisher), ATP (15 μM; Cat #A1852, Sigma), and kinase reaction buffer. After 1 hour kinase reactions at room temperature, 10 μL of Detection mix (8 nM LanthaScreen® Tb-CREB [pSer133] antibody, Cat #PV3542, ThermoFisher with 20 mM EDTA in TR-FRET Buffer, Cat #PV3574, ThermoFisher) was added, and the plate was read with a plate reader (Synergy™ NEO; Biotek) for TR-FRET.
The resulting TR-FRET emission ratio was used to calculate the percent inhibition by normalizing to the control using the following formula: […]

[5] = Kinetic solubility assay (nephelometry); conditions: PBS, 37 °C, pH 7.4, aqueous buffer, kinetic from dmso stock
Procedure: (§2) Test articles were serially diluted in DMSO from concentration range of 10 mM to 0.078 mM in 96 well v-bottom dilution plate (#3363, Corning). 1 μL of test article from each well was transferred to 96 well flat bottom clear plates (#655101, Greiner) containing 99 μL of PBS at pH-7.4, which makes the test drug final concentration range from 100 μM to 0.78 μM. Samples were incubated for 1 hour at 37° C. followed by measurement of light scattering at 625 nm with a laser based micro plate Nephelometer (Nephlostar Plus, BMG Labtech). Solubility concentration (μM) was then calculated by segmental regression with Neplometer as Readout.

physchem = conditions: 37 °C, pH 7.4, aqueous buffer, kinetic from dmso stock
Procedure: as §2

[6] = Caco-2, pH 7.4, Caco-2, solution recovery, A to B, read-out: Recovery % A to B
[7] = Caco-2, pH 7.4, Caco-2, solution recovery, B to A, read-out: Recovery % B to A
[8] = Caco-2, pH 7.4, Caco-2, total recovery with cell lysate, A to B, read-out: Recovery % with Cell Lysate A to B
[9] = Caco-2, pH 7.4, Caco-2, total recovery with cell lysate, B to A, read-out: Recovery % with Cell Lysate B to A

CHK-1 kinase, sequence (O14757 whole entry): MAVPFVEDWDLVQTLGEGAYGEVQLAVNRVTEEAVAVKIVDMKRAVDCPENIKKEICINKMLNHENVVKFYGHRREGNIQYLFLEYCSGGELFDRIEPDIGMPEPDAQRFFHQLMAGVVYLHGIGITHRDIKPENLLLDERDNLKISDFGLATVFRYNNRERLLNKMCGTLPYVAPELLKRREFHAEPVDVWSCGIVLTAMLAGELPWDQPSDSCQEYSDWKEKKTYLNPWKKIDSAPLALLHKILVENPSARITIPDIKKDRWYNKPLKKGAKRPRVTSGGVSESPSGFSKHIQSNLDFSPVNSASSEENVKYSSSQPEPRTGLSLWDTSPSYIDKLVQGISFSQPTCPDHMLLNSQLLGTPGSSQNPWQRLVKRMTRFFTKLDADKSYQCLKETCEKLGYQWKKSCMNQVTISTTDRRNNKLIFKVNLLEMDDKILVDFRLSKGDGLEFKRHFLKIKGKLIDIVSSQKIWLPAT

SMILES | microsomal CLint at 1 μM [1] [µL/min/mg] | microsomal CLint at 1 μM [2] [µL/min/mg] | microsomal CLint at 1 μM [3] [µL/min/mg] | recovery at 120 min [4, 6] [%] | recovery at 120 min [4, 7] [%] | recovery at 120 min [4, 8] [%] | recovery at 120 min [4, 9] [%] | Papp A→B at 120 min [4] [nm/s] | Papp B→A at 120 min [4] [nm/s] | inhibition at 0.03 µM (CHK-1 kinase) [%] | inhibition at 0.3 µM (CHK-1 kinase) [%] | IC50 (CHK-1 kinase) [µM] | solubility kinetic at 1 h [5] [µM] | solubility kinetic at 1 h (physchem) [µM]
N#Cc1cnc(Nc2cc(-c3ccccc3OCC3CNCCO3)on2)cn1 (stereo not shown) [Compound 1.1, 5-(5-(2-(morpholin-2-ylmethoxy)phenyl)isoxazol-3-ylamino) pyrazine-2-carbonitrile] | 100 | 32 | 58 | 69 | 102 | 94.1 | 107 | 70 | 87 | 49 | 88 | 0.0677 | 44 (≈ 16.6 µg/mL) | 
N#Cc1cnc(Nc2cc(-c3ccccc3OCC3CCNCC3)on2)cn1 [Compound 1.2, 5-(5-(2-(piperidin-4-ylmethoxy)phenyl)isoxazol-3-ylamino) pyrazine-2-carbonitrile] | 39 | 45 | 27 | 67.7 | 103 | 93.9 | 108 | 53.5 | 97.5 | 36 | 85 | 0.0133 | 45.6 (≈ 17.2 µg/mL) | 
N#Cc1cnc(Nc2cc(-c3ccccc3OCC3CCCNC3)on2)cn1 (stereo not shown) [Compound 1.3, 5-(5-(2-(piperidin-3-ylmethoxy)phenyl)isoxazol-3-ylamino) pyrazine-2-carbonitrile] | 68 | 47 | 61 | 54.7 | 103 | 89 | 107 | 34 | 112 | 50 | 97 | 0.00777 | 100 (≈ 37.6 µg/mL) | 
COc1cc(C2=CCNCC2)ccc1-c1cc(Nc2cnc(C#N)cn2)on1 [Compound 1.9, 5-(3-(2-methoxy-4-(1,2,3,6-tetrahydropyridin-4-yl)phenyl)isoxazol-5-ylamino) pyrazine-2-carbonitrile] | 83 | 159 | 85 |  |  |  |  |  |  | 33 | 31 | > 10 |  | 100 (≈ 37.4 µg/mL)
COc1cc(C2=CCNCC2)ccc1-c1cc(Nc2cnc(C#N)cn2)no1 [Compound 1.19, 5-(5-(2-methoxy-4-(1,2,3,6-tetrahydropyridin-4-yl)phenyl)isoxazol-3-ylamino) pyrazine-2-carbonitrile] | 239 | 183 | 88 |  |  |  |  |  |  | 15.1 | 50.5 |  |  | 27.6 (≈ 10.3 µg/mL)
